The text below walks through data of ChEMBL document CHEMBL1134065, “Structure-Activity study of retinoid agonists bearing substituted dicarba-closo-dodecaborane. Relation between retinoidal activity and conformation of two aromatic nuclei” (2001).

Assay [1] relates to HL-60. The assay is described as follows: HL-60 differentiation-inducing activity at a dose of 10e-10 M. Format: functional, Homo sapiens.
For assay [2], the system named is HL-60. Put plainly: HL-60 differentiation-inducing activity at a dose of 10e-8 M. Format: functional, Homo sapiens.
Assay [3] deals with HL-60. The assay is described as follows: HL-60 differentiation-inducing activity at a dose of 10e-9.5 M. Format: functional, Homo sapiens.
In assay [4] the test system is HL-60. Put plainly: HL-60 differentiation-inducing activity at a dose of 10e-9 M. In kind it is functional, Homo sapiens.
Assay [5] deals with HL-60. The assay is described as follows: HL-60 differentiation-inducing activity at a dose of 10e-7 M. Format: functional, Homo sapiens.
Assay [6] concerns the target T1, Retinoic acid receptor gamma (Homo sapiens) (UniProt P13631).
T1 sequence (whole entry): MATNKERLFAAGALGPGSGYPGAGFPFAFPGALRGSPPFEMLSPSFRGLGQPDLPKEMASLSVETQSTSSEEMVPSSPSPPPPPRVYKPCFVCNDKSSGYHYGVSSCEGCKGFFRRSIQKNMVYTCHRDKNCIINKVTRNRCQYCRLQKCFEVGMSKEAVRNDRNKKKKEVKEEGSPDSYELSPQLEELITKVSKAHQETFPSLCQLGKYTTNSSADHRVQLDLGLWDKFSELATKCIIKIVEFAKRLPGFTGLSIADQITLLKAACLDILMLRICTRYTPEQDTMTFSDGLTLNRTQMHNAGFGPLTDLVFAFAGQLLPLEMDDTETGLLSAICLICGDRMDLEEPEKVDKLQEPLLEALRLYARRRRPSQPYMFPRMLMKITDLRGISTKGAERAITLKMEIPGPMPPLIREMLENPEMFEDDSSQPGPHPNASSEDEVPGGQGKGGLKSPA
The assay is described as follows: Agonistic activity on Retinoic acid receptor gamma by transcriptional activation in COS-1 cells incubated at 10e-6 M. In kind it is functional, cell-based.

In assay [7] the target is T1, Retinoic acid receptor gamma (Homo sapiens). The assay is described as follows: Agonistic activity on Retinoic acid receptor gamma by transcriptional activation in COS-1 cells incubated at 10e-7 M. Format: functional, cell-based.
Assay [8] shares this target. The assay is described as follows: Agonistic activity on Retinoic acid receptor gamma by transcriptional activation in COS-1 cells incubated at 10e-8 M. Format: functional, cell-based.
Assay [9] has the same target. The assay is described as follows: Agonistic activity on Retinoic acid receptor gamma by transcriptional activation in COS-1 cells incubated at 10e-9 M. Format: functional, cell-based.

Regarding `CC1(C)CCC(C)(C)c2cc(NC(=O)c3ccc(C(=O)O)cc3)ccc21` [TAMIBAROTENE], the Differentiated cells in the assay on HL-60 [1] is given as about 5%; in the assay on HL-60 [2] it was about 85%; in the assay with HL-60 [3], about 40%; in the assay on HL-60 [4], about 75%.

As for `CC1=C(/C=C/C(C)=C/C=C/C(C)=C/C(=O)O)C(C)(C)CCC1` [TRETINOIN], the Differentiated cells in the assay on HL-60 [5] is on record as about 85%; in the assay on HL-60 [2], about 70%; in the assay on HL-60 [4] it was about 2%. The Relative luciferase response amounted to 30 in assay [6], 14 in [7], 12 in [8] and 6 in assay [9].
